Legend:
[1] = Lipophilicity, log D of the compound; format: physicochemical; conditions: octanol/water
[2] = Ratio of drug level in brain to plasma in rat at 5 mg/kg, iv after 1 hr; format: ADME, organism-based; design: dose 5 mg/kg, route intravenous
[3] = Plasma clearance in rat at 5 mg/kg, iv; format: ADME, organism-based; design: dose 5 mg/kg, route intravenous
Melanocortin receptor 3 = Melanocortin receptor 3 (Homo sapiens, UniProt P41968); assay: Binding affinity to MC3 receptor
[4] = Oral bioavailability in rat at 10 mg/kg; format: ADME, organism-based; conditions: in vivo
[5] = AUC in rat at 10 mg/kg, po; format: ADME, organism-based; design: dose 10 mg/kg, route oral; conditions: plasma
[6] = Metabolic stability assessed as intrinsic clearance in human liver microsomes; format: ADME, Microsome
[7] = Half life in rat at 5 mg/kg, iv; format: ADME, organism-based; design: dose 5 mg/kg, route intravenous; conditions: in vivo
[8] = Volume of distribution in rat at 5 mg/kg, iv; format: ADME, organism-based; design: dose 5 mg/kg, route intravenous; conditions: in vivo
Brain = assay: Drug level in rat brain rat at 5 mg/kg, iv; format: ADME, organism-based; design: dose 5 mg/kg, route intravenous; conditions: in vivo
Melanocortin receptor 4 [9] = target: T1, Melanocortin receptor 4 (Homo sapiens, UniProt P32245)
Description: Binding affinity to human MC4 receptor

Melanocortin receptor 4 [10] = target: T1, Melanocortin receptor 4; assay: Antagonist activity at human MC4 receptor expressed in cells assessed as inhibition of alpha-MSH-stimulated cAMP production; format: functional, cell-based
Melanocortin receptor 5 = Melanocortin receptor 5 (Homo sapiens, UniProt P33032); assay: Binding affinity to MC5 receptor
Melanocortin receptor 5, sequence (P33032 whole entry): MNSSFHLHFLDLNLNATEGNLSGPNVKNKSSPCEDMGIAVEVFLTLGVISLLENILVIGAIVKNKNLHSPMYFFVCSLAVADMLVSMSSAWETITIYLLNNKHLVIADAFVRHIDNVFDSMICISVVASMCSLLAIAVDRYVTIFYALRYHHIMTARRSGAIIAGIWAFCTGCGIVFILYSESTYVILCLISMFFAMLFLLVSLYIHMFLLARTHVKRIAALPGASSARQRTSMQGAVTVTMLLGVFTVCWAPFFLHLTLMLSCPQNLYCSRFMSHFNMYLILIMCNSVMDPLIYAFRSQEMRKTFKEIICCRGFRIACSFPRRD

T1 sequence (P32245 whole entry): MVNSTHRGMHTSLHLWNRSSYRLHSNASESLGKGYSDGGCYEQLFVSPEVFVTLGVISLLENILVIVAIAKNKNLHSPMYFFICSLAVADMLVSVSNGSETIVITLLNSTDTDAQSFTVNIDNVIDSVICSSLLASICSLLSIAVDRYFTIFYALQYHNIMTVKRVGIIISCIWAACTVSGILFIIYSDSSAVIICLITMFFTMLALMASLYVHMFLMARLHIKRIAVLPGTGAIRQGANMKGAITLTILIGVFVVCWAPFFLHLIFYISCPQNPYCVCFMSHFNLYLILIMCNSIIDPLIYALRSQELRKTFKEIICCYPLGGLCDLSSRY
Melanocortin receptor 3, sequence (P41968 whole entry): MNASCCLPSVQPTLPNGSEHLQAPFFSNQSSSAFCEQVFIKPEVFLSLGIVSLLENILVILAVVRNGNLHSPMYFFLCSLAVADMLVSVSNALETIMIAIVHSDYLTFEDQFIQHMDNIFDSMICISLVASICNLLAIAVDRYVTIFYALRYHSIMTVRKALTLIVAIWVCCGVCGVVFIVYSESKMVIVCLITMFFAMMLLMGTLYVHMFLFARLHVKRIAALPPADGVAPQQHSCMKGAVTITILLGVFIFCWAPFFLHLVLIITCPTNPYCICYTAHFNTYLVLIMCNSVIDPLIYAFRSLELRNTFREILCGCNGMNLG

logD [1]: 2.2
Kp at 1 h [2]: 0.53
clearance [3]: 64.5 mL/min/kg
Ki (Melanocortin receptor 3): 1700 nM
bioavailability [4]: 1.2%
AUC [5]: 30 ng·h/mL
CLint scaled [6]: 14.7 mL/min/kg
half-life [7]: 7.6 h
Vd [8]: 42.3 L/kg
Drug uptake (Brain): 117 ng/g
Ki (Melanocortin receptor 4 [9]): 8.1 nM
IC50 (Melanocortin receptor 4 [10]): 260 nM
Ki (Melanocortin receptor 5): 970 nM
SMILES: CC(C)CC(O)c1ccccc1N1CCN(C(=O)[C@@H](Cc2ccc(Cl)cc2Cl)NC(=O)CCN)CC1 (stereo partly drawn)

Source: ChEMBL document CHEMBL1156733, “Structure-activity relationship studies on a series of piperazinebenzylalcohols and their ketone and amine analogs as melanocortin-4 receptor ligands” (Bioorg Med Chem Lett, 2008)
